US9249114B2, “Thiazole derivatives” (Merck Patent GmbH, priority 2011, dated 2016)

biological target: TANK binding kinase (TBK1) (Homo sapiens (Human), UniProt Q9UHD2); assay: TBK1 enzyme assay (384-well Flashplate kinase assay); format: biochemical; details: 10 μM ATP, 120 Min at 30° C.
Description: Test for the Inhibition of TBK1
The kinase assay is performed as 384-well Flashplate assay (for e.g. Topcount measurement. 0.6 nM TANK binding kinase (TBK1), 800 nM biotinylated MELK-derived peptide (Biotin-Ah-Ah-[…]) SEQ ID NO: 2 and 10 μM ATP (spiked with 0.25 μCi ^33P-ATP/well) are incubated in a total volume of 50 μl (10 mM MOPS, 10 mM Mg-acetat, 0.1 mM EGTA, 1 mM DTT, 0.02% Brij35, 0.1% BSA, pH 7.5) with or without test compound for 120 Min at 30° C. The reaction is stopped with 25 μl 200 mM EDTA. After 30 Min at room temperature the liquid is removed and each well washed thrice with 100 μl 0.9% sodium chloride solution. Nonspecific reaction is determined in presence of 100 nM Staurosporine. Radioactivity is measured in a Topcount (PerkinElmer). Results (e.g. IC50-values) are calculated with program tools provided by the IT-department (e.g. AssayExplorer, Symyx).

Chain of TANK binding kinase (TBK1) (Q9UHD2 whole entry): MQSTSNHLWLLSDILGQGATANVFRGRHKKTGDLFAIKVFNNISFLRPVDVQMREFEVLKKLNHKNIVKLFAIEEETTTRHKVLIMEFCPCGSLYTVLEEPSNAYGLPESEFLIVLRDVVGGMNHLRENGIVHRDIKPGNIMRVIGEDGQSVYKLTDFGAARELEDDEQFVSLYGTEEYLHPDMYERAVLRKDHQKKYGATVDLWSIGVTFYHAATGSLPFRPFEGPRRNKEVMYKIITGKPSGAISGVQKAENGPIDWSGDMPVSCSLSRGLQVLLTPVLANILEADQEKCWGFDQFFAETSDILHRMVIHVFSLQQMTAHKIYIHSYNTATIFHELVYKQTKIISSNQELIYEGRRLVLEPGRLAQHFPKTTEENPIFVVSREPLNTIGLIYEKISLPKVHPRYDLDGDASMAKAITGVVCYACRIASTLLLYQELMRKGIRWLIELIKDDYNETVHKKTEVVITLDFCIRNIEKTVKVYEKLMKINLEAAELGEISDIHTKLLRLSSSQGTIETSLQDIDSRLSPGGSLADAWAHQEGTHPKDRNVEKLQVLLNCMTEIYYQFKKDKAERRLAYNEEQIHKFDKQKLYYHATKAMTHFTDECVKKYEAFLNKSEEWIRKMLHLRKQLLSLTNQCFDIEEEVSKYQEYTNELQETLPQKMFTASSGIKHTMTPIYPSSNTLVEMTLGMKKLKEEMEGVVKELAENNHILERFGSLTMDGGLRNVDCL

| IC50 [nM] | Structure (SMILES) |
| --- | --- |
| 300 | CN1CCN(Cc2ccc(C(=O)Nc3sc(-c4ccncc4)nc3C(N)=O)cc2)CC1 [Compound A4, 5-[4-(4-methyl-piperazin-1-ylmethyl)-benzoylamino]-2-pyridin-4-yl-thiazole-4-carboxylic acid amide] |
| 94 | NC(=O)c1nc(-c2ccncc2)sc1NC(=O)c1ccc(CC2CCN(C(N)=O)CC2)cc1 [Compound A23, 4-[4-(4-carbamoyl-2-pyridin-4-yl-thiazol-5-ylcarbamoyl)-benzyl]-piperidine-1-carboxylic acid amide] |
| 99 | CN(C)C(=O)CCCCc1ccc(C(=O)Nc2sc(-c3ccncc3)nc2C(N)=O)cc1 [Compound A25, 5-[4-(4-dimethylcarbamoyl-butyl)-benzoylamino]-2-pyridin-4-yl-thiazole-4-carboxylic acid amide] |
| 240 | CNC(=O)CCCCc1ccc(C(=O)Nc2sc(-c3ccncc3)nc2C(N)=O)cc1 [Compound A32, 5-[4-(4-methylcarbamoyl-butyl)-benzoylamino]-2-pyridin-4-yl-thiazole-4-carboxylic acid amide] |
| 310 | CN1CCN(C(=O)c2ccc(C(=O)Nc3sc(-c4ccncc4)nc3C(N)=O)cc2)CC1 [Compound A34, 5-[4-(4-methyl-piperazine-1-carbonyl)-benzoylamino]-2-pyridin-4-yl-thiazole-4-carboxylic acid amide] |
| 645 | NC(=O)c1nc(-c2ccncc2)sc1NC(=O)c1ccc(CN2CCOCC2)cc1 [Compound A36, 5-(4-morpholin-4-ylmethyl-benzoylamino)-2-pyridin-4-yl-thiazole-4-carboxylic acid amide] |
| 1160 | NC(=O)c1nc(-c2ccncc2)sc1NC(=O)c1ccc(CN2CCCC2)cc1 [Compound A38, 2-pyridin-4-yl-5-(4-pyrrolidin-1-ylmethyl-benzoylamino)-thiazole-4-carboxylic acid amide] |
| 1200 | CC(C)(C)OC(=O)N1CCN(c2ccc(C(=O)Nc3sc(-c4ccncc4)nc3C(N)=O)cn2)CC1 [Compound A39, 4-[5-(4-Carbamoyl-2-pyridin-4-yl-thiazol-5-ylcarbamoyl)-pyridin-2-yl]-piperazine-1-carboxylic acid tert-butyl ester] |

More lines, now with the values behind:

| Structure (SMILES) | IC50 [nM] |
| --- | --- |
| CN1CCN(Cc2ccc(C(=O)Nc3sc(-c4ccnc(Cl)c4)nc3C(N)=O)cc2)CC1 [Compound A5, 2-(2-chloro-pyridin-4-yl)-5-[4-(4-methyl-piperazin-1-ylmethyl)-benzoylamino]-thiazole-4-carboxylic acid amide] | 1400 |
| NC(=O)c1nc(-c2ccncc2)sc1NC(=O)c1ccc(CCCCCC(=O)O)cc1 [Compound A28, 6-[4-(4-carbamoyl-2-pyridin-4-yl-thiazol-5-ylcarbamoyl)-phenyl]-hexanoic acid] | 160 |
| NC(=O)c1nc(-c2ccncc2)sc1NC(=O)c1ccc(CC2CCNCC2)cc1 [Compound A29, 5-(4-piperidin-4-ylmethyl-benzoylamino)-2-pyridin-4-yl-thiazole-4-carboxylic acid amide] | 190 |
| CC(=O)N1CCC(Cc2ccc(C(=O)Nc3sc(-c4ccncc4)nc3C(N)=O)cc2)CC1 [Compound A30, 5-[4-(1-acetyl-piperidin-4-ylmethyl)-benzoylamino]-2-pyridin-4-yl-thiazole-4-carboxylic acid amide] | 200 |
| CN(C)CCNCc1ccc(C(=O)Nc2sc(-c3ccncc3)nc2C(N)=O)cc1 [Compound A31, 5-{4-[(2-dimethylamino-ethylamino)-methyl]-benzoylamino}-2-pyridin-4-yl-thiazole-4-carboxylic acid amide] | 210 |
| COCCNCc1ccc(C(=O)Nc2sc(-c3ccncc3)nc2C(N)=O)cc1 [Compound A33, 5-{4-[(2-methoxy-ethylamino)-methyl]-benzoylamino}-2-pyridin-4-yl-thiazole-4-carboxylic acid amide] | 260 |
| CN(C)C(=O)CCCCCc1ccc(C(=O)Nc2sc(-c3ccncc3)nc2C(N)=O)cc1 [Compound A35, 5-[4-(5-dimethylcarbamoyl-pentyl)-benzoylamino]-2-pyridin-4-yl-thiazole-4-carboxylic acid amide] | 580 |
